Measurements from article PMC6479757, “Coralmycin Derivatives with Potent Anti-Gram Negative Activity Produced by the Myxobacteria Corallococcus coralloides M23” (Molecules, 2019).
≈ marks a conversion by molar mass, not a printed value. Read-outs that look alike come from different tables or passages of the source.

Assays:
[1] = tested on: Gram-negative and Gram-positive bacteria; details: cited from earlier work
[2] = tested on: QRSA CCARM 3519; experiment: Antibacterial susceptibility, broth microdilution MIC; assay type: cell-based; details: Staphylococcus aureus, CCARM3519; QRSA CCARM 3519; 24-h incubation at 37 °C; read-out: MIC
Procedure: (§1) Whole-cell antimicrobial activities were determined using a broth microdilution method described previously. Most of the test strains were grown to mid-log phase in Mueller–Hinton broth and diluted 1,000-fold in the same medium. Cells (10^5/mL) were dispensed at 0.2 mL/well in 96-well microtiter plates. Streptococcus pneumonia and Acinetobacter baumanii were grown in Todd–Hewitt medium and nutrient broth, respectively. […]. Cells were treated with 0.05% DMSO as a vehicle control. The MICs were determined in triplicate by serial two-fold dilutions of the test compounds. […] Bacterial growth was determined by measuring the absorption at 650 nm using a microtiter enzyme-linked immunosorbent assay (ELISA) reader (Molecular Devices Corporation, Sunnyvale, CA, USA).

[3] = tested on: Streptococcus pneumonia KCTC 5412; experiment: as above; assay type: cell-based; details: Streptococcus pneumoniae, KCTC5412, Todd–Hewitt medium, 24-h incubation at 37 °C
Procedure: as §1

[4] = tested on: MRSA CCARM 3506; experiment: as above; assay type: cell-based; details: Staphylococcus aureus, 24-h incubation at 37 °C
Procedure: as §1

[5] = tested on: Enterococcus faecalis KCTC 5191; experiment: as above; assay type: cell-based; details: KCTC5191, 24-h incubation at 37 °C
Procedure: as §1

[6] = tested on: E. coli CCARM 1356; experiment: as above; assay type: cell-based; details: Escherichia coli, CCARM1356, 24-h incubation at 37 °C
Procedure: as §1

[7] = tested on: MRSA CCARM 3167; experiment: as above; assay type: cell-based; details: Staphylococcus aureus, 24-h incubation at 37 °C
Procedure: as §1

[8] = tested on: QRSA CCARM 3505; experiment: as above; assay type: cell-based; details: Staphylococcus aureus, CCARM3505; QRSA CCARM 3505; 24-h incubation at 37 °C; read-out: MIC
Procedure: as §1

[9] = tested on: Acinetobacter baumannii KCTC 2508; experiment: as above; assay type: cell-based; details: KCTC2508, nutrient broth, 24-h incubation at 37 °C
Procedure: as §1

[10] = tested on: E. coli KCTC 1682; experiment: as above; assay type: cell-based; details: Escherichia coli
Procedure: as §1

[11] = tested on: Klebsiella pneumoniae KCTC 22057; experiment: as above; assay type: cell-based; details: KCTC22057; Klebsiella pneumoniae KCTC 22057; 24-h incubation at 37 °C
Procedure: as §1

[12] = tested on: Pseudomonas aeruginosa KCTC 2004; experiment: as above; assay type: cell-based; details: KCTC2004; Pseudomonas aeruginosa KCTC 2004; 24-h incubation at 37 °C
Procedure: as §1

[13] = biological target: T1, E. coli DNA gyrase (Escherichia coli, UniProt P0AES4+P0AES6); experiment: DNA gyrase supercoiling assay; assay type: biochemical; details: relaxed plasmid, 37 °C for 30 min, agarose gel band densities; read-out: IC50, inhibition of the supercoiling activity of E. coli DNA gyrase
T1 construct: purchased TopoGEN TG2001G
Procedure: The inhibitory activities of coralmycins on the supercoiling activity of DNA gyrase were investigated using a ‘Purified E. coli DNA Gyrase Drug Screening Kit’ (TopoGEN #TG2001G, Buena Vista, CO, USA). […] The reaction was terminated by the addition of 2 μL of 10% (w/v) SDS and 2 μL of 10× DNA gel loading dye (bromophenol blue). Then, 20 μL of chloroform:isoamyl alcohol (24:1 mixture) was added, and the mixture was vortexed and then centrifuged. The samples in the blue phase were run on 1% (w/v) agarose gel and were visualized using ethidium bromide. All reactions were performed in triplicate. To calculate the IC50 values, the band densities were measured using ImageJ (National Institutes of Health, Bethesda, Maryland, MD, USA).

[14] = biological target: DNA gyrase; details: read-out: IC50, DNA gyrase-inhibitory activity; cited from earlier work
[15] = tested on: Staphylococcus aureus RN 4220; experiment: Antibacterial susceptibility, broth microdilution MIC; assay type: cell-based; details: RN4220, 24 h
Procedure: Whole-cell antimicrobial activities were determined using a broth microdilution method described previously. Most of the test strains were grown to mid-log phase in Mueller–Hinton broth and diluted 1,000-fold in the same medium. Cells (10^5/mL) were dispensed at 0.2 mL/well in 96-well microtiter plates. Streptococcus pneumonia and Acinetobacter baumanii were grown in Todd–Hewitt medium and nutrient broth, respectively. […] Cells were treated with 0.05% DMSO as a vehicle control. The MICs were determined in triplicate by serial two-fold dilutions of the test compounds. […] Bacterial growth was determined by measuring the absorption at 650 nm using a microtiter enzyme-linked immunosorbent assay (ELISA) reader (Molecular Devices Corporation, Sunnyvale, CA, USA).

[16] = tested on: Gram-negative pathogens as well as Gram-positive bacteria; parameters: method as in PMID 27598688; details: compared with 11; cited from earlier work
[17] = tested on: Gram-negative pathogens; details: compared with 12; cited from earlier work
[18] = KCTC1682, 24-h incubation at 37 °C, Table 6 and Table S1, read-out: MIC

T1 sequence (P0AES4 whole entry, one chain of several): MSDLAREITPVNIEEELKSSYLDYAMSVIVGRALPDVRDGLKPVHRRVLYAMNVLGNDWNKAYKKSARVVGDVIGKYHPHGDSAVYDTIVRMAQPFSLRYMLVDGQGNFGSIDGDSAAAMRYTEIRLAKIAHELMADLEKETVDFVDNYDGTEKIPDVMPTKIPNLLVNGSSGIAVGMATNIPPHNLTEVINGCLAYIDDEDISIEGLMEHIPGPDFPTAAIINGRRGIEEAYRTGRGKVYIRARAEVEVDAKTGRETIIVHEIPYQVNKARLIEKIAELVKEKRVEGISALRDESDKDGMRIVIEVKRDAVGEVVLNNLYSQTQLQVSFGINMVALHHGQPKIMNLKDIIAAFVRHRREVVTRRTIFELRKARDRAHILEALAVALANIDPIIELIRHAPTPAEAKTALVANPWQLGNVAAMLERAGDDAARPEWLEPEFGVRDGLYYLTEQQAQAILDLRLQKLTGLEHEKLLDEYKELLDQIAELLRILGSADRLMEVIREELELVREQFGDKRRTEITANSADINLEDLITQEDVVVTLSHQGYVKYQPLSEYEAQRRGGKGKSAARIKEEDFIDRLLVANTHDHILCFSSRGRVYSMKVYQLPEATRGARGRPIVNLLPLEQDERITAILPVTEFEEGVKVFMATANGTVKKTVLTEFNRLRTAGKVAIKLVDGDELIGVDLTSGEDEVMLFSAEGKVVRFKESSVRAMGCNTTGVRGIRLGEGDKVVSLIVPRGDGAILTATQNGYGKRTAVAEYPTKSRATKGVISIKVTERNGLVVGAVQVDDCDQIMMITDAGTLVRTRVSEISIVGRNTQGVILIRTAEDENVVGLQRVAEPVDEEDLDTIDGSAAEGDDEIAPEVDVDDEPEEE

In the case of `CC(C)Oc1cc(C(=O)O)ccc1NC(=O)c1ccc(NC(=O)c2ccc(N)cc2)c(OC(C)C)c1O` [Compound 10, cystobactamid 507], the antibacterial activity ([1]; in words) is given as “weak antibacterial activity”, the “MICs against Gram-negative and Gram-positive bacteria” value ([1]; reported range) is given as 4 to 65 µg/mL and the MIC [2] is given as greater than 32 µg/mL. The MIC [3] was greater than 32 µg/mL, the MIC [4] was greater than 32 µg/mL and the MIC [5] was greater than 32 µg/mL. The MIC [6] was greater than 32 µg/mL, the MIC [7] was greater than 32 µg/mL and the MIC [8] was greater than 32 µg/mL. It also gave an MIC [9] greater than 32 µg/mL, an MIC [10, 18] greater than 32 µg/mL and an MIC ([10]; KCTC1682, Table 7, read-out: MIC, antibacterial activity on E. coli KCTC 1682) greater than 32 µg/mL. For the same compound, the MIC [11] was greater than 32 µg/mL, the MIC [12] was greater than 32 µg/mL and the IC50 [13] was greater than 300000 nM. The IC50 [14] was 20.2 µM and the MIC [15] was greater than 32 µg/mL.
For `CO[C@@H](C(N)=O)[C@H](NC(=O)c1ccc(NC(=O)c2ccc([N+](=O)[O-])cc2)cc1)C(=O)Nc1ccc(C(=O)Nc2ccc(C(=O)Nc3ccc(C(=O)O)c(O)c3OC(C)C)c(O)c2OC(C)C)cc1` [Compound 12, coralmycin A, reference compound], the “antibacterial activity relative to 11 (times higher)” value [16] is listed as 10 times, the MIC [2] is listed as 0.25 µg/mL (≈ 0.267 µM) and the MIC [3] is listed as 0.25 µg/mL (≈ 0.267 µM). For the same compound, the MIC [4] was 0.015 µg/mL (≈ 0.016 µM), the MIC [5] was 0.03 µg/mL (≈ 0.0321 µM) and the MIC [6] was 0.125 µg/mL (≈ 0.134 µM). The MIC [7] was 0.015 µg/mL (≈ 0.016 µM), the MIC [8] was 0.125 µg/mL (≈ 0.134 µM) and the MIC [9] was 0.125 µg/mL (≈ 0.134 µM). The MIC [10, 18] was 0.125 µg/mL (≈ 0.134 µM), the MIC ([10]; KCTC1682, 24 h, Table 7, read-out: MIC, antibacterial activity on E. coli KCTC 1682) was 0.25 µg/mL (≈ 0.267 µM) and the MIC [11] was 2 µg/mL (≈ 2.14 µM). The MIC [12] was 4 µg/mL (≈ 4.27 µM), the IC50 [13] was 80 nM and the MIC [15] was 0.015 µg/mL (≈ 0.016 µM).
For `CO[C@@H](C(N)=O)[C@H](NC(=O)c1ccc(NC(=O)c2ccc([N+](=O)[O-])cc2)cc1)C(=O)Nc1ccc(C(=O)Nc2ccc(C(=O)Nc3ccc(C(=O)O)cc3)c(O)c2OC(C)C)cc1` [cystobactamid 861-2], the “antibacterial activity against Gram-negative pathogens relative to 12 (times higher)” value [17] is given as 4–10 times.
